Experiment [1] in a line: Inhibition of SARS-CoV-2 MPro using Dabcyl-KTSAVLQSGFRKME-Edans as substrate preincubated for 30 mins followed by substrate addition and measured after 60 mins by fluorescence based assay. Also noted: species or system Severe acute respiratory syndrome coronavirus 2.
The target in a further experiment is Procathepsin L (Homo sapiens, UniProt P07711). Briefly: Inhibition of Cathepsin L (unknown origin).
Experiment [2] relates to SARS-CoV-2. Nature of the experiment: Antiviral activity against SARS-CoV-2 infected in Vero E6 cells assessed as reduction in viral replication. It is filed as functional, organism-based. The settings on record: Severe acute respiratory syndrome coronavirus 2, Vero C1008.
A short description of experiment [3]: Binding affinity to SARS-CoV-2 Main protease assessed as inhibition constant. More on the design: species or system Severe acute respiratory syndrome coronavirus 2.
Experiment [4] can be described thus: Inhibition of SARS-Cov-2 Main protease by FRET assay. More on the design: species or system Severe acute respiratory syndrome coronavirus 2.
In experiment [5] the test system is SARS-CoV-2. Nature of the experiment: Antiviral activity against SARS-CoV-2 infected in African green monkey Vero E6 cells assessed as reduction in viral replication incubated for 72 hrs by RT-qPCR analysis. Type of experiment: functional, organism-based. The settings on record: Severe acute respiratory syndrome coronavirus 2, Vero C1008, 72 h. (In qPCR the cycle at which signal appears reflects the starting amount.)

Experiment [6] can be described thus: Inhibition of C-terminal GST-tagged SARS-CoV-2 Main protease extracted from Escherichia coli BL21 (DE3) measured for 60 mins by FRET assay. More on the design: species or system Severe acute respiratory syndrome coronavirus 2.
In experiment [7] the test system is SARS-CoV-2. Nature of the experiment: Antiviral activity against SARS-CoV-2 infected in African green Monkey Vero E6 cells assessed as reduction in viral replication measured after 48 hrs by qRT-PCR analysis. Type of experiment: functional, organism-based. The following applies: Severe acute respiratory syndrome coronavirus 2, Vero C1008, 48 h.
A short description of experiment [8]: Inhibition of SARS-CoV-2 Main protease extracted from Escherichia coli BL21 (DE3) using MCA-Ala-Val-Leu-Gln-Ser-Gly-Phe-Arg-Lys(Dnp)-LsyNH2-trifluoroacetate salt as substrate pre-incubated for 30 mins followed by substrate addition and measured after 1 hrs by FRET assay. More on the design: species or system Severe acute respiratory syndrome coronavirus 2.
A short description of experiment [9]: Inhibition of SARS-CoV-2 Main protease using MCA-Ala-Val-Leu-Gln-Ser-Gly-Phe-Arg-Lys(Dnp)-LsyNH2-trifluoroacetate salt as substrate pre-incubated for 30 mins and measured for 1 hr by FRET analysis. More on the design: species or system Severe acute respiratory syndrome coronavirus 2.
Experiment [10] deals with SARS-CoV-2. Briefly: Antiviral activity against SARS-CoV-2 infected in african green monkey Vero E6 cells. Type of experiment: functional, organism-based. The settings on record: Severe acute respiratory syndrome coronavirus 2, Vero C1008.
Experiment [11] can be described thus: Binding affinity to SARS-CoV-2 MPro transfected in Escherichia coli BL21 (DE3) cells assessed as inhibition constant by FRET assay. More on the design: species or system Severe acute respiratory syndrome coronavirus 2.
Experiment [12] deals with Replicase polyprotein 1ab (Severe acute respiratory syndrome coronavirus 2, UniProt P0DTD1). Nature of the experiment: Inhibition of SARS-CoV-2 3CL protease by luciferase reporter assay. (A reporter such as luciferase makes a cellular process visible.)
The nature of experiment [13]: Inhibition of recombinant SARS-CoV-2 Wuhan-Hu-1 main protease extracted from Escherichia coli cells using Dabcyl-KTSAVLQSGFRKME-Edans as substrate incubated for 60 mins by FRET assay. Also noted: species or system Severe acute respiratory syndrome coronavirus 2.
Experiment [14] can be described thus: Inhibition of SARS-CoV-2 Main protease. Also noted: species or system Severe acute respiratory syndrome coronavirus 2.
The subject of experiment [15] is SARS-CoV-2. Briefly: Antiviral activity against SARS-CoV-2 infected in African green monkey Vero cells assessed as reduction in virus-induced cytopathic effect incubated for 3 days by microscopic analysis. The settings on record: Severe acute respiratory syndrome coronavirus 2, Vero, 72 h. It is filed as functional, organism-based. (Cytopathic effects are the visible damage that an infection or toxin causes in cultured cells.)

The nature of experiment [16]: Inhibition of recombinant SARS-CoV-2 BetaCoV/Wuhan/WIV04/2019 main protease extracted from Escherichia coli BL21 (DE3) cells using Dabcyl-KTSAVLQSGFRKME (Edans) as substrate measured for 1 hr by FRET assay. Also noted: species or system Severe acute respiratory syndrome coronavirus 2.

Where a SMILES comes first, the peptide text is derived from it. The star is where a group is joined. Octanoyl = CCCCCCCC(=O)*; Boc = CC(C)(C)OC(=O)*

Consider 19 molecules from ChEMBL document CHEMBL6120938, “Covalent small-molecule inhibitors of SARS-CoV-2 Mpro: Insights into their design, classification, biological activity, and binding interactions” (Eur J Med Chem, 2024).

As usually defined, the IC50 is the concentration at which inhibition is half-maximal. In general, EC50 refers to the midpoint of the concentration-response curve. By Ki is commonly meant the equilibrium dissociation constant of an inhibitor or competing ligand from its target.

Procathepsin L, sequence (P07711 whole entry): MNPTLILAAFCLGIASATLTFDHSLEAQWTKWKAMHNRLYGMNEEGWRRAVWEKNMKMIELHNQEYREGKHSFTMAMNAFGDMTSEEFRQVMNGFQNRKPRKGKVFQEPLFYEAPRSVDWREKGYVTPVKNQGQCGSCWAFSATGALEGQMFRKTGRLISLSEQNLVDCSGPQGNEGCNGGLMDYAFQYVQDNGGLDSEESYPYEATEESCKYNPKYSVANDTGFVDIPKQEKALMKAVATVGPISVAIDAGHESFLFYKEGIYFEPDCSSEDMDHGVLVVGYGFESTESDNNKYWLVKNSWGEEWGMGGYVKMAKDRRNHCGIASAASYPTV

On to `O=C(NCc1ccccn1)C(=O)[C@@H](Cc1ccccc1)NC(=O)[C@H]1CCC(=O)N1Cc1ccccc1`, for which 3000 nM corresponded to half-maximal inhibition in [1] (IC50).

For `CC(C)C[C@H](NC(=O)OCc1cccc(C(F)(F)F)c1)C(=O)N[C@@H](C[C@@H]1CCNC1=O)[C@H](O)S(=O)(=O)O`, the IC50 at Procathepsin L came to 6 nM.

Turning to `COc1cc(-c2cccc3[nH]ncc23)cc(C=O)c1OCC(=O)N(C)C`, the EC50 in the experiment with SARS-CoV-2 [2] is 5190 nM. Moreover, the Ki in experiment [3] worked out at 20 nM.

In the case of `CCOC(=O)/C=C/[C@H](C[C@@H]1CCNC1=O)NC(=O)[C@H](CC#N)n1cccc(NC(=O)c2cc(C)on2)c1=O`, 101000 nM corresponded to half-maximal inhibition in experiment [4] (IC50).

On to `CC[C@H](NC[C@H](CS(=O)(=O)CC1CC1)N[C@@H](c1ccc(F)cc1)C(F)(F)F)C(=O)C(=O)NC1CC1`, for which the EC50 in the experiment with SARS-CoV-2 [5] stood at 300 nM.

With `COc1cc(-c2cccc3[nH]ncc23)cc(C=O)c1OCC(=O)N1CCC(c2cccc(C(=O)N(C)C)c2)C1` (stereo not drawn), in [3], the Ki is 45 nM.

Turning to `O=c1c2cccc([N+](=O)[O-])c2[se]n1Cc1ccccc1`, the concentration for half-maximal inhibition (IC50) in experiment [6] came to 2010 nM.

In the case of `COc1ccc(Cn2[se]c3ccccc3c2=O)cn1`, the EC50 in the experiment on SARS-CoV-2 [7] worked out at 3170 nM. Moreover, the IC50 in experiment [8] was determined as 460 nM.

For `O=c1c2ccccc2[se]n1-c1cccc2cccnc12`, the IC50 in [6] came out at 2600 nM.

For `CCC[C@H](NC(=O)[C@H](CC(C)C)NC(=O)OCc1ccccc1)C(=O)C(=O)NCc1ccccc1`, the IC50 in [9] was 64500 nM.

`CC(C)CC(NC(=O)OCc1ccccc1Cl)C(=O)N[C@@H](C[C@@H]1CCNC1=O)[C@H](O)S(=O)(=O)O` (stereo partly drawn) displayed an IC50 at Procathepsin L of 1 nM. This molecule returned an EC50 with SARS-CoV-2 [10] of 2000 nM.

As to `CC(C)(C)C[C@H](NC(=O)C1CCCO1)C(=O)N[C@@H](C[C@@H]1CCNC1=O)C(=O)COC(=O)c1c(Cl)cccc1Cl` (stereo partly drawn), in [11], the inhibition constant Ki was 2.5 nM.

`C=CC(=O)N(CCC)[C@H](C(=O)NCc1ccc2c(c1)OCO2)c1cccc(O)c1` registered an IC50 in [12] of 1000 nM.

For the molecule `CC(=O)NCC(=O)N[C@@H](Cc1ccccc1)C(=O)N[C@H](C=O)Cc1c[nH]cn1` (Ac-Gly-Phe-His-aldehyde), in experiment [13], the IC50 is 2510 nM.

`CSCC[C@@H](C=O)NC(=O)[C@H](CC(C)C)NC(=O)[C@H](CC(C)C)NC(C)=O` (Ac-Leu-Leu-Met-aldehyde) showed an IC50 in experiment [14] of 970 nM. For the same molecule, in the experiment with SARS-CoV-2 [15], the half-maximal effective concentration (EC50) amounted to 970 nM.

Consider `CC(C)(C)OC(=O)NCC(=O)N[C@@H](Cc1ccccc1)C(=O)N[C@H](C=O)Cc1c[nH]cn1` (Boc-Gly-Phe-His-aldehyde), for which the IC50 in experiment [13] stood at 6490 nM.

As to `CCCCCCCC(=O)NCC(=O)N[C@@H](Cc1ccccc1)C(=O)N[C@H](C=O)Cc1c[nH]cn1` (Octanoyl-Gly-Phe-His-aldehyde), in experiment [13], the half-inhibitory concentration (IC50) stood at 2370 nM.

For the molecule `CCCC[C@@H](C=O)NC(=O)[C@H](CC(C)C)NC(=O)OCc1ccccc1` [CALPEPTIN], in experiment [16], the IC50 worked out at 10700 nM.

`CC(=O)N[C@@H](CC(C)C)C(=O)N[C@@H](CC(C)C)C(=O)N[C@H](C=O)CCCNC(=N)N` [LEUPEPTIN]: the half-maximal effective concentration (EC50) in the experiment with SARS-CoV-2 [15] came out at 42300 nM.
